# Results reported in ChEMBL document CHEMBL1201862, “PubChem BioAssay data set” (2004).
# Calls of active or inactive are those of the source.
# Assays:
# [1] = CTGF mRNA reduction under YAP1 overexpression, dose response, mechanism study for YAP1 pathway inhibitor project, DLD1 cells, RT-qPCR, cherry-pick (AID 1053127); format: functional, cell-based; details: DLD-1
# [2] = target: Dual specificity tyrosine-phosphorylation-regulated kinase 1A (Rattus norvegicus, UniProt Q63470); format: biochemical, Homo sapiens
# [3] = target: T1, Sentrin-specific protease 1 (Homo sapiens, UniProt Q9P0U3); test: potency of human SENP1 inhibitors, dose response, biochemical, kinetic FRET (AID 651697); format: functional; details: read-out: IC50_Mean
# [4] = target: T1, Sentrin-specific protease 1; test: Dose response confirmation of small molecule inhibitors of the catalytic domain of the SUMO protease, SENP1 in a FRET assay.; format: functional; details: read-out: IC50_Mean
# [5] = HeLa cell cytotoxicity, dose response, cytotoxicity control for MgcRacGAP inhibitor project (AID 624300); format: functional
# [6] = target: T2, Rac GTPase-activating protein 1 (Homo sapiens, UniProt Q9H0H5); test: MgcRacGAP GTPase-activating activity inhibitors, confirmation, biochemical, ADP Hunter fluorescence, primary and confirmatory (AID 624330); format: functional
# T2 sequence (Q9H0H5 whole entry): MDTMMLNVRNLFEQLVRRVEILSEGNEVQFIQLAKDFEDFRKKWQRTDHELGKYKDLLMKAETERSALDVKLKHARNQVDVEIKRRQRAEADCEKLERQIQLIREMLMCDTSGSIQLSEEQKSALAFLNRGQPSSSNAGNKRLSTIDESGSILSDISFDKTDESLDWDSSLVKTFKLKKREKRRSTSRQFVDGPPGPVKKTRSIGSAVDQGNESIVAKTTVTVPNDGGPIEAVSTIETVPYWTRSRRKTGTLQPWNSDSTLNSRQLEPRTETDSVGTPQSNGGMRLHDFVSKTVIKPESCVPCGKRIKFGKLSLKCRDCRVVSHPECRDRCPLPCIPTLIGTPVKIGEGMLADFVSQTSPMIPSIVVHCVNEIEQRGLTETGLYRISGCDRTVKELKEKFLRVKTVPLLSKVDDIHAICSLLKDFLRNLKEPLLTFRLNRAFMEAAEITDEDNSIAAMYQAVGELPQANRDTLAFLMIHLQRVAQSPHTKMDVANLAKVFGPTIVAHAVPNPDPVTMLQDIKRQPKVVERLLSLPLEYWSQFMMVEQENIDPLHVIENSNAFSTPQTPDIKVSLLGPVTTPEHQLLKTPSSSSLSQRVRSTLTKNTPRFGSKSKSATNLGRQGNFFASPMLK
# [7] = target: T3, DNA repair protein RAD52 homolog (Homo sapiens, UniProt P43351); format: functional, biochemical
# T3 sequence (P43351 whole entry): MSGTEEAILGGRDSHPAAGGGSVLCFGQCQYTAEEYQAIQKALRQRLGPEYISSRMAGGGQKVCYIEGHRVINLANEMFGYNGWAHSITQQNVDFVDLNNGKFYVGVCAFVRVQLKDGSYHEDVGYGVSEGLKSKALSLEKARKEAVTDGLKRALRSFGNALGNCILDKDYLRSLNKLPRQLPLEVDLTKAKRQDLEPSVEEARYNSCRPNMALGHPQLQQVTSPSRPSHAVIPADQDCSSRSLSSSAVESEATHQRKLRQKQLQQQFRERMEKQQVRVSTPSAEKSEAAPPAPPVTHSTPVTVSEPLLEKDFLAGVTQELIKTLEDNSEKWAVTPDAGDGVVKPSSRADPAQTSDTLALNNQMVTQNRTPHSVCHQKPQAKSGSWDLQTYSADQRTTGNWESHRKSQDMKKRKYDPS
# Transthyretin = Transthyretin (Homo sapiens, UniProt P02766); test: Luminescence-based cell-based high throughput dose response assay to identify activators of Transthyretin (TTR) transcription.; format: functional
# [8] = Concentration-dependent survival of SW480 colon cancer line, luminescence detection with CellTiter-Glo, half-maximal inhibitory concentration (AID 1117338); format: functional
# [9] = RKO cell viability reduction, dose response, CellTiter-Glo luminescence (AID 1117322); format: functional
# [10] = cytotoxicity toward HCT116 cells – cell-based, CellTiter-Glo luminescence, IC50, dose response (AID 1117332); format: functional; details: HCT-116
# [11] = SNU-C1 cell viability reduction, dose response, CellTiter-Glo luminescence (AID 1117323); format: functional, cell-based
# [12] = cytotoxicity toward Colo320 cells – cell-based, CellTiter-Glo luminescence, IC50, dose response (AID 1117334); format: functional; details: COLO 320
# [13] = cytotoxicity toward HT-29 cells – cell-based, CellTiter-Glo luminescence, IC50, dose response (AID 1117330); format: functional
# [14] = CellTiter-Glo luminescent dose response of DLD-1 viability loss (AID 1117352); format: functional
# [15] = HCT116 cell viability decrease, GSK3B pretreatment – CellTiter-Glo, IC50, dose response (AID 1117339); format: functional; details: HCT-116
# [16] = HepG2 hepatoma cell cytotoxicity, dose response, cytotoxicity control, CellTiter-Glo luminescence, dry powder, set 3 (AID 720594); format: functional, cell-based
# [17] = HEK293T cell cytotoxicity, dose response, cytotoxicity control, CellTiter-Glo luminescence, dry powder, set 2 (AID 720595); format: functional, cell-based; details: HEK293
# [18] = HeLa cell cytotoxicity, dose response, cytotoxicity control, CellTiter-Glo luminescence, dry powder, set 2 (AID 720593); format: functional, cell-based
# [19] = target: T4, Heat shock factor protein 1 (Mus musculus, UniProt P38532); test: inhibition of MG132-induced HSE-luciferase signal, confirmation, cell-based, NIH3T3, luminescence, dose retest (AID 2382); format: functional;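 further: NIH3T3 fibroblasts with HSF1-driven luciferase reporter stressed by proteasome inhibitor MG132; luminescence from HSF1-driven luciferase expression after 8 hours of MG132 stress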
# T4 sequence (P38532 whole entry): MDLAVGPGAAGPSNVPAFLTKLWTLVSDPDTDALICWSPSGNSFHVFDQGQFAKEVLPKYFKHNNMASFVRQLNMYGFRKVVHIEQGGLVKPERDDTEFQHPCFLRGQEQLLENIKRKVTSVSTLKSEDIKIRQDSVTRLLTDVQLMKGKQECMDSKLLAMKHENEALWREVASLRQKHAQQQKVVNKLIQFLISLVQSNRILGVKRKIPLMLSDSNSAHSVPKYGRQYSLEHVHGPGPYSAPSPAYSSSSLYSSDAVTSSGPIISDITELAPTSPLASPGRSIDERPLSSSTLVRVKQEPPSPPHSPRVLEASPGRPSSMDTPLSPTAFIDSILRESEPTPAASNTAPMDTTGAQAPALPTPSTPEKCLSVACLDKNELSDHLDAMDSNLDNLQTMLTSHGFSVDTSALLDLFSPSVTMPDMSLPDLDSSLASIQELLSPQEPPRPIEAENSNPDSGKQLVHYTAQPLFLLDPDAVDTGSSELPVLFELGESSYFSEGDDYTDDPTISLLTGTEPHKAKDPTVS
# [20] = target: NAD-dependent protein deacylase sirtuin-5, mitochondrial (Homo sapiens, UniProt Q9NXA8); test: SIRT5 desuccinylase inhibitors, dose response, biochemical, fluorescence imaging, cherry-pick, set 5 (AID 720591);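 further: desuccinylation of succinyl peptide AMC substrate read as fluorescence after trypsin release; potency of inhibitors that lower fluorescence and may act on trypsin instead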
# [21] = Luminescence-based cell-based high throughput dose response assay to identify activators of the DAF-12 from the parasite S. stercoralis (ssDAF-12).; format: functional
# [22] = target: T5, Oxysterols receptor LXR-beta (Homo sapiens, UniProt P55055); test: LXR agonists, Gal4 luciferase reporter, dose response, counter-screen for ssDAF-12 agonist project, cell-based, luminescence, HEK293, S. stercoralis campaign (AID 720737); format: functional; details: read-out: IC50 (the source's name)
# T5 sequence (P55055 whole entry): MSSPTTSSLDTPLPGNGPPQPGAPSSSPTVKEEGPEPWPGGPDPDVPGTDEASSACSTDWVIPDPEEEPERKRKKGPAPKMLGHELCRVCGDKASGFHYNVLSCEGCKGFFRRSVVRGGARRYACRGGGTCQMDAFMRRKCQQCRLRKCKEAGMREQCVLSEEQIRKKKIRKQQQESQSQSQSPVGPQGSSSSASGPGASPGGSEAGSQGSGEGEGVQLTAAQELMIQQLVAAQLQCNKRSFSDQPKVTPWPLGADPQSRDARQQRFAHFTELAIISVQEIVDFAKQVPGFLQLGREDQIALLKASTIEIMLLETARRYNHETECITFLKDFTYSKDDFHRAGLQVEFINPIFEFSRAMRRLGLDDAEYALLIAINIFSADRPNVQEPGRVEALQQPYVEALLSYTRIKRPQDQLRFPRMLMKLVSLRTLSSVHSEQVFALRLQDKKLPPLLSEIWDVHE
# Cryptococcus neoformans = test: PubChem AID 686997; format: functional, organism-based
# [23] = HepG2 cell cytotoxicity, dose response, cytotoxicity control, ATP luminescence, dry powder, set 2 (AID 743129); format: functional, cell-based
# [24] = TB: CFU replicating Measured in Microorganism System Using Imaging - 7108-05_Inhibitor_Dose_DryPowder_Activity_Set2.; format: functional
# 14-3-3 protein gamma = target: T6, 14-3-3 protein gamma (Homo sapiens, UniProt P61981); test: modulators of 14-3-3 gamma client binding – dose response (AID 711); format: functional
# T6 sequence (P61981 whole entry): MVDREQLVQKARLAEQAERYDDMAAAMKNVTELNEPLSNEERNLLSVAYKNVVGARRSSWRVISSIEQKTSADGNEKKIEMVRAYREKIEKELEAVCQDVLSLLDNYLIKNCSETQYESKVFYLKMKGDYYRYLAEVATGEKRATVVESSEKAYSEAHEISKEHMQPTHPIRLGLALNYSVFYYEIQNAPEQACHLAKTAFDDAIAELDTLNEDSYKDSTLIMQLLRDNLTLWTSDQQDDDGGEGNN
# [25] = target: FAD-linked sulfhydryl oxidase ALR (Homo sapiens, UniProt P55789); test: inhibitors of human ALR sulfhydryl oxidase, dose response, biochemical, H2O2 detection, luminescence, cherry-pick (AID 493248)
# Protein skinhead-1 = target: T7, Protein skinhead-1 (Caenorhabditis elegans, UniProt P34707); format: functional
# T7 sequence (P34707 whole entry): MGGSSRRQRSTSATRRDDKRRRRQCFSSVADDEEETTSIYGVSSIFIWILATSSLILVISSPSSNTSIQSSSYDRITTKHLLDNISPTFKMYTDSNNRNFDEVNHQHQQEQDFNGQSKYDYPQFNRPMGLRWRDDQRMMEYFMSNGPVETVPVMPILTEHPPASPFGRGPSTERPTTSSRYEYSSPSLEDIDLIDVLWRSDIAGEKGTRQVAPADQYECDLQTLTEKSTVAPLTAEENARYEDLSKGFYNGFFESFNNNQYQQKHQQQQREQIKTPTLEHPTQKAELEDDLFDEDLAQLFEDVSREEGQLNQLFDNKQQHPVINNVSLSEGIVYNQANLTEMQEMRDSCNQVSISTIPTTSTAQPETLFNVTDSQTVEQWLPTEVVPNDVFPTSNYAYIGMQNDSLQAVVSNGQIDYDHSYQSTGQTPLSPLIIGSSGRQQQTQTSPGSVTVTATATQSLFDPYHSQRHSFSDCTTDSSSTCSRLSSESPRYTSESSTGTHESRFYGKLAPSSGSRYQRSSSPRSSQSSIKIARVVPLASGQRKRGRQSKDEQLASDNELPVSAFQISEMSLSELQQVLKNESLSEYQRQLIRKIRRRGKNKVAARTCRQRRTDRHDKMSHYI
# [26] = target: Glutathione-S-transferase (Schistosoma japonicum, UniProt Q26513); test: biotin-GST/anti-GST TR-FRET signal inhibitors, dose response, artefact control for Vif-APOBEC3G degradation inhibitor project, biochemical (AID 1117362); format: functional
# Chain of Glutathione-S-transferase (Q26513 whole entry): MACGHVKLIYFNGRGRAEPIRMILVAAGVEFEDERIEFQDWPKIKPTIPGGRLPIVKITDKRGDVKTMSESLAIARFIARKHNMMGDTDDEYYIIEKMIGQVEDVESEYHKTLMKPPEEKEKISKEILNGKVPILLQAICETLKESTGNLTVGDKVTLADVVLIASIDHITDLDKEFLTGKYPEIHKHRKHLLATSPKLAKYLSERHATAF
# T1 sequence (Q9P0U3 whole entry, the tested form may be a part): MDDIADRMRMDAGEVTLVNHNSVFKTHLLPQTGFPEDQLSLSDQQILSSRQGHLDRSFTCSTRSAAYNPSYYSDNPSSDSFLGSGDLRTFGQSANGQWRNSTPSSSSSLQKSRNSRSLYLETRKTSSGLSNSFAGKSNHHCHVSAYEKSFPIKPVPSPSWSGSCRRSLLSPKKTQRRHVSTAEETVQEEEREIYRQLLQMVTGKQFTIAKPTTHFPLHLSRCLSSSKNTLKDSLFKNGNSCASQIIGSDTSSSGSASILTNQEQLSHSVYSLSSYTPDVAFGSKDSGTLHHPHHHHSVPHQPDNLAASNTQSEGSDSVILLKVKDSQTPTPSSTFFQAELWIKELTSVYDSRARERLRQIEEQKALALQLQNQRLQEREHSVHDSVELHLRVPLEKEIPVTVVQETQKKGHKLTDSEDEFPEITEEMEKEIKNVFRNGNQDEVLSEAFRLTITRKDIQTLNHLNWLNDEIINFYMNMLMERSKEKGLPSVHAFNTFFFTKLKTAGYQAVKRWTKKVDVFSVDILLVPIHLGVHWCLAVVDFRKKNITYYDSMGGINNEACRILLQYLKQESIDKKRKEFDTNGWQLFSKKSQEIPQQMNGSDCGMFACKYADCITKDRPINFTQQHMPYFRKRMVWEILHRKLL
# Chain of NAD-dependent protein deacylase sirtuin-5, mitochondrial (Q9NXA8 whole entry): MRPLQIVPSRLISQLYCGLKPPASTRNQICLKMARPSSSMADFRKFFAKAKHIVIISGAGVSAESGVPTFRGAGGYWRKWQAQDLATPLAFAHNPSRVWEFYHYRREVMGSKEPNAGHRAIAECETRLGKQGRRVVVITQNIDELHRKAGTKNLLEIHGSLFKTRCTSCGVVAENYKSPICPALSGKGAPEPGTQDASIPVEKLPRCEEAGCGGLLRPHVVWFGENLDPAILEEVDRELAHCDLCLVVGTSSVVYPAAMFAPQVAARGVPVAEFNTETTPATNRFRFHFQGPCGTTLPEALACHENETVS
# Chain of FAD-linked sulfhydryl oxidase ALR (P55789 whole entry): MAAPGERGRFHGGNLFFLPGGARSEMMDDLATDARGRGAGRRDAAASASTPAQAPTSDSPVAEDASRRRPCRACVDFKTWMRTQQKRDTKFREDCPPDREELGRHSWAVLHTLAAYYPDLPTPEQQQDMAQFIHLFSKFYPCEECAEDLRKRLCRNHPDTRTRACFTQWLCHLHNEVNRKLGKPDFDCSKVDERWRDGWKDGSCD
smiles,measurement,setting,value
C[C@@H]1CN([C@@H](C)CO)C(=O)CCCn2nncc2CO[C@@H]1CN(C)C(=O)c1cc(-c2ccccc2)on1,AC50,[1],> 26 µM (inactive)
CN(C)CCNc1ccc(CO)c2oc3ccc(O)cc3c(=O)c12,AC50,[2],8.03 µM (active)
same,IC50,[3],14.1 µM (active)
same,IC50,[4],21.6 µM (inactive)
same,CC50,[5],50.8 µM (active)
same,IC50,[6],128 µM (active)
same,AC50,[7],2.51 µM (active)
same,EC50,Transthyretin,> 167 µM (inactive)
CCCCCCCCCCCCCCCCCC[N+](C)(C)CCC[Si](OC)(OC)OC,IC50,[8],> 20 µM (inactive)
same,IC50,[9],> 20 µM (inactive)
same,IC50,[10],> 20 µM (inactive)
same,IC50,[11],> 20 µM (inactive)
same,IC50,[12],> 20 µM (inactive)
same,IC50,[13],> 20 µM (inactive)
same,IC50,[14],> 20 µM (inactive)
same,IC50,[15],> 20 µM (inactive)
CCn1nc(-c2cccnc2)nc2c(=O)n(C)c(=O)nc1-2,AC50,[16],3.24 µM (active)
same,AC50,[17],16.4 µM (active)
same,AC50,[18],4.34 µM (active)
O=C(Cn1nc(-c2ccc(Cl)cc2)ccc1=O)NCC1CCCO1 (stereo not given),EC50,[19],> 195 µM (not active)
same,AC50,[20],> 30 µM (inactive)
COC(=O)[C@]12C=CCN1[C@H](c1ccc(OC)c(OC)c1)c1c(c3ccccc3n1S(=O)(=O)c1ccc(C)cc1)C2,IC50,[21],> 67.5 µM (inactive)
same,EC50,[22],> 67.5 µM (inactive)
COC(=O)C1=C(C)N(Cc2ccc(F)cc2)C(=S)NC1c1cccc(F)c1 (stereo not given),AC50,Cryptococcus neoformans,36.7 µM (active)
same,AC50,[23],> 52 µM (inactive)
Cn1c(NC(=O)c2ccccc2)nc2c3cccnc3ccc21,AbsAC90,[24],141.12 µM
NC(=O)c1cc(N)ccc1N1CCCC1,IC50,14-3-3 protein gamma,18.1 µM (active)
same,AC50,[25],4.01 µM (active)
same,IC50,Protein skinhead-1,> 100 µM (inactive)
same,IC50,[26],12.9 µM (active)
